Test results: a compilation of properties of binary mixtures (doi:10.1016/j.jct.2020.106093)

Test: xn = mol fraction of the nth substance listed
Settings: 100.9 kPa

CC(=O)[O-].CC[NH2+]CC + O
Settings	electrical conductivity [S/m]	speed of sound [m/s]	viscosity [mPa·s]
313.15 K, x1 = 0.351	–	–	19.49
313.15 K, x1 = 0.708	–	1494	–
313.15 K, x1 = 0.714	–	–	33.5
313.15 K, x1 = 0.835	–	1461	–
313.15 K, x1 = 0.84	–	–	34
315.65 K, x1 = 0.015	–	–	0.904
315.65 K, x1 = 0.055	–	–	1.89
315.65 K, x1 = 0.24	–	–	11.59
315.65 K, x1 = 0.351	–	–	17.57
315.65 K, x1 = 0.549	–	–	26.3
315.65 K, x1 = 0.84	–	–	30.6
318.15 K, x1 = 0.015	4.74	1608	0.862
318.15 K, x1 = 0.054	8.13	–	–
318.15 K, x1 = 0.055	–	1732	1.774
318.15 K, x1 = 0.119	–	1782	3.94
318.15 K, x1 = 0.12	5.91	–	–
318.15 K, x1 = 0.168	4.05	1758	6.11
318.15 K, x1 = 0.24	2.51	1699	10.54
318.15 K, x1 = 0.35	–	1636	–
318.15 K, x1 = 0.351	–	–	15.87
318.15 K, x1 = 0.549	–	1526	23.7
318.15 K, x1 = 0.55	0.767	–	–
318.15 K, x1 = 0.708	–	1479	–
318.15 K, x1 = 0.714	0.609	–	27.2
318.15 K, x1 = 0.835	–	1446	–
318.15 K, x1 = 0.838	0.498	–	–
318.15 K, x1 = 0.84	–	–	27.6
318.15 K, x1 = 0.945	0.476	–	–
320.65 K, x1 = 0.015	–	–	0.826
320.65 K, x1 = 0.055	–	–	1.67
320.65 K, x1 = 0.119	–	–	3.65
320.65 K, x1 = 0.168	–	–	5.63
320.65 K, x1 = 0.24	–	–	9.62
320.65 K, x1 = 0.351	–	–	14.41
320.65 K, x1 = 0.549	–	–	21.5
320.65 K, x1 = 0.714	–	–	24.6
320.65 K, x1 = 0.84	–	–	25
323.15 K, x1 = 0.015	–	1610	0.795
323.15 K, x1 = 0.055	–	1725	1.576
323.15 K, x1 = 0.119	–	1768	3.4
323.15 K, x1 = 0.168	–	1744	5.21
323.15 K, x1 = 0.24	–	1685	8.81
323.15 K, x1 = 0.35	–	1622	–
323.15 K, x1 = 0.351	–	–	13.12
323.15 K, x1 = 0.549	–	1512	19.55
323.15 K, x1 = 0.708	–	1464	–
323.15 K, x1 = 0.714	–	–	22.3
323.15 K, x1 = 0.835	–	1430	–
323.15 K, x1 = 0.84	–	–	22.7
325.65 K, x1 = 0.015	–	–	0.757
325.65 K, x1 = 0.055	–	–	1.489
325.65 K, x1 = 0.119	–	–	3.17
325.65 K, x1 = 0.168	–	–	4.82
325.65 K, x1 = 0.24	–	–	8.09
325.65 K, x1 = 0.351	–	–	11.97
325.65 K, x1 = 0.549	–	–	17.76
325.65 K, x1 = 0.714	–	–	20.3
325.65 K, x1 = 0.84	–	–	20.6
328.15 K, x1 = 0.055	–	–	1.411
328.15 K, x1 = 0.119	–	–	2.97
328.15 K, x1 = 0.168	–	–	4.48
328.15 K, x1 = 0.24	–	–	7.45
328.15 K, x1 = 0.351	–	–	10.96
328.15 K, x1 = 0.714	–	–	18.53
328.15 K, x1 = 0.84	–	–	18.78
330.65 K, x1 = 0.24	–	–	6.88
330.65 K, x1 = 0.351	–	–	10.06
330.65 K, x1 = 0.549	–	–	14.78
330.65 K, x1 = 0.714	–	–	16.94
330.65 K, x1 = 0.84	–	–	17.14
333.15 K, x1 = 0.015	7.37	–	0.666
333.15 K, x1 = 0.054	13.1	–	–
333.15 K, x1 = 0.055	–	–	1.273
333.15 K, x1 = 0.12	8.77	–	–
333.15 K, x1 = 0.168	5.75	–	3.89
333.15 K, x1 = 0.24	3.65	–	6.37
333.15 K, x1 = 0.353	2	–	–
333.15 K, x1 = 0.549	–	–	13.57
333.15 K, x1 = 0.714	0.802	–	15.52
333.15 K, x1 = 0.838	0.666	–	–
333.15 K, x1 = 0.945	0.65	–	–
335.65 K, x1 = 0.015	–	–	0.641
335.65 K, x1 = 0.055	–	–	1.213
335.65 K, x1 = 0.119	–	–	2.45
335.65 K, x1 = 0.24	–	–	5.91
335.65 K, x1 = 0.351	–	–	8.55
335.65 K, x1 = 0.549	–	–	12.48
335.65 K, x1 = 0.714	–	–	14.25
335.65 K, x1 = 0.84	–	–	14.39
338.15 K, x1 = 0.015	–	–	0.617
338.15 K, x1 = 0.055	–	–	1.159
338.15 K, x1 = 0.119	–	–	2.31
338.15 K, x1 = 0.168	–	–	3.4
338.15 K, x1 = 0.24	–	–	5.49
338.15 K, x1 = 0.351	–	–	7.91
338.15 K, x1 = 0.549	–	–	11.5
338.15 K, x1 = 0.714	–	–	13.11
338.15 K, x1 = 0.84	–	–	13.23
340.65 K, x1 = 0.015	–	–	0.595
340.65 K, x1 = 0.055	–	–	1.108
340.65 K, x1 = 0.119	–	–	2.18
340.65 K, x1 = 0.24	–	–	5.12
340.65 K, x1 = 0.351	–	–	7.33
340.65 K, x1 = 0.549	–	–	10.62
340.65 K, x1 = 0.714	–	–	12.08
340.65 K, x1 = 0.84	–	–	12.19
343.15 K, x1 = 0.015	–	–	0.574
343.15 K, x1 = 0.119	–	–	2.06
343.15 K, x1 = 0.168	–	–	3
343.15 K, x1 = 0.24	–	–	4.78
343.15 K, x1 = 0.351	–	–	6.81
343.15 K, x1 = 0.549	–	–	9.84
343.15 K, x1 = 0.714	–	–	11.16
343.15 K, x1 = 0.84	–	–	11.24
348.15 K, x1 = 0.007	3.01	–	–
348.15 K, x1 = 0.015	10.1	–	–
348.15 K, x1 = 0.054	16.6	–	–
348.15 K, x1 = 0.12	10.6	–	–
348.15 K, x1 = 0.168	7.47	–	–
348.15 K, x1 = 0.24	4.92	–	–
348.15 K, x1 = 0.945	1.09	–	–
363.15 K, x1 = 0.007	3.4	–	–
363.15 K, x1 = 0.015	12.9	–	–
363.15 K, x1 = 0.054	17.4	–	–
363.15 K, x1 = 0.12	11.6	–	–
363.15 K, x1 = 0.24	5.47	–	–
363.15 K, x1 = 0.353	3.65	–	–
363.15 K, x1 = 0.55	2.24	–	–
363.15 K, x1 = 0.714	1.67	–	–
363.15 K, x1 = 0.838	1.32	–	–
